Measurements from US20110212968A1, “PHENETHYLAMIDE DERIVATIVES AND THEIR HETEROCYCLIC ANALOGUES” (priority 2008, published 2011).

Columns and labels:
[1] = biological target: T1, human orexin-2 receptor (Homo sapiens, UniProt O43614); assay: Intracellular calcium measurement (FLIPR Tetra), orexin receptor antagonistic activity, OX2; type: cell-based; conditions: CHO cells expressing human orexin-2 receptor, 3 nM orexin-A, conditions B
T1 construct: expressed in transfected cells; host or cells: CHO (Chinese hamster ovary) cells, kept under G418 selection
T1 sequence (O43614 1-444): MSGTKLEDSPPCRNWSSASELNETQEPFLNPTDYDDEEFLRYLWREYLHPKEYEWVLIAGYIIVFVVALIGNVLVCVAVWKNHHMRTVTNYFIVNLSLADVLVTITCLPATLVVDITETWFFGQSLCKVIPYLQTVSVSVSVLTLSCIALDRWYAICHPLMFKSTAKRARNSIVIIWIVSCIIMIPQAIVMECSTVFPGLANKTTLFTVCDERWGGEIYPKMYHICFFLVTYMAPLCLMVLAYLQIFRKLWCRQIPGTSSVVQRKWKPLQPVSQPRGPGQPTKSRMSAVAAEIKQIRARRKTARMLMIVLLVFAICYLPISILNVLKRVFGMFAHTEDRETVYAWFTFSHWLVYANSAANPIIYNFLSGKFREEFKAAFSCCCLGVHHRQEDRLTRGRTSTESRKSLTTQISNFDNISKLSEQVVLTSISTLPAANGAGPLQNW
Outline: (§1)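 Recombinant CHO cells expressing human OX1 or OX2, loaded with fluo-4 AM plus probenecid, were preincubated with antagonist 10 min, then stimulated with 3 nM human orexin-A. Peak fluorescence was compared with vehicle; IC50 derived, sometimes normalized to an on-plate reference compound; two pipetting/cell-splitting conditions were used.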

[2] = biological target: T2, human orexin-1 receptor (Homo sapiens, UniProt O43613); assay: Intracellular calcium measurement (FLIPR Tetra), orexin receptor antagonistic activity, OX1; type: cell-based; conditions: CHO cells expressing human orexin-1 receptor, 3 nM orexin-A, conditions B
T2 construct: expressed in transfected cells; host or cells: CHO (Chinese hamster ovary) cells, kept under G418 selection
T2 sequence (O43613 1-425): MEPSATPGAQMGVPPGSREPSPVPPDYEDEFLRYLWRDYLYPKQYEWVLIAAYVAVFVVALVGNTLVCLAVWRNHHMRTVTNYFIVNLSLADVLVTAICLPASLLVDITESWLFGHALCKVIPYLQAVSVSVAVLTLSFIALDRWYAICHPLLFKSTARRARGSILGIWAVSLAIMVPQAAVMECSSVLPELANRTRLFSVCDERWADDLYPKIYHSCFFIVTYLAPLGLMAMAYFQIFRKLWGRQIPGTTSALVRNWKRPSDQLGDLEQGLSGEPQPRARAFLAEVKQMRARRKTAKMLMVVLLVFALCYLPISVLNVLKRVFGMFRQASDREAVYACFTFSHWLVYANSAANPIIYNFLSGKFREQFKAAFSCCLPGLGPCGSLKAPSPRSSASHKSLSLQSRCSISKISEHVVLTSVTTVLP
Outline: as §1

[3] = normalized (*) using IC50 of on-plate reference compound

Compound: COc1cc(CCN(CC2CC2)C(=O)c2nc(C)sc2-c2ccc(C)c(C)c2)ccc1O [Example 207, 5-(3,4-Dimethyl-phenyl)-2-methyl-thiazole-4-carboxylic acid cyclopropylmethyl-[2-(4-hydroxy-3-methoxy-phenyl)-ethyl]-amide]
- IC50 [1]: 12 nM
- IC50 [2]: 538 nM

Compound: COc1cc(CCN(CC2CC2)C(=O)c2nc(C)sc2-c2ccc(C)c(C)c2)c(OC)cc1I [Example 213, 5-(3,4-Dimethyl-phenyl)-2-methyl-thiazole-4-carboxylic acid cyclopropylmethyl-[2-(4-iodo-2,5-dimethoxy-phenyl)-ethyl]-amide]
- IC50 [1]: 153 nM
- IC50 [2]: 157 nM

Compound: Cc1cccc(-c2sc(N)nc2C(=O)N(CCc2nc3ccc(Cl)cc3[nH]2)CC2CC2)c1 [Example 220, 2-Amino-5-m-tolyl-thiazole-4-carboxylic acid [2-(6-chloro-1H-benzoimidazol-2-yl)-ethyl]-cyclopropylmethyl-amide]
- IC50 [1]: 31 nM
- IC50 [2]: 139 nM

Compound: Cc1cccc(-c2sc(N)nc2C(=O)N(CCn2ccc3ccccc32)CC2CC2)c1 [Example 221, 2-Amino-5-m-tolyl-thiazole-4-carboxylic acid cyclopropylmethyl-(2-indol-1-yl-ethyl)-amide]
- IC50 [1]: 201 nM
- IC50 [2]: 243 nM

Compound: Cc1cccc(-c2sc(N)nc2C(=O)N(CCc2c[nH]c3ccc(Br)cc23)CC2CC2)c1 [Example 223, 2-Amino-5-m-tolyl-thiazole-4-carboxylic acid [2-(5-bromo-1H-indol-3-yl)-ethyl]-cyclopropylmethyl-amide]
- IC50 [1]: 135 nM
- IC50 [2]: 5 nM

Compound: Cc1cccc(-c2sc(N)nc2C(=O)N(CCc2c[nH]c3cc(Cl)ccc23)CC2CC2)c1 [Example 224, 2-Amino-5-m-tolyl-thiazole-4-carboxylic acid [2-(6-chloro-1H-indol-3-yl)-ethyl]-cyclopropylmethyl-amide]
- IC50 [1]: 26 nM
- IC50 [2]: 8 nM

Compound: COc1ccc2c(CCN(CC3CC3)C(=O)c3nc(N)sc3-c3cccc(C)c3)c[nH]c2c1 [Example 227, 2-Amino-5-m-tolyl-thiazole-4-carboxylic acid cyclopropylmethyl-[2-(6-methoxy-1H-indol-3-yl)-ethyl]-amide]
- IC50 [1]: 17 nM
- IC50 [2]: 7 nM

Compound: Cc1cccc(-c2sc(N)nc2C(=O)N(CCc2c[nH]c3c(C)cccc23)CC2CC2)c1 [Example 230, 2-Amino-5-m-tolyl-thiazole-4-carboxylic acid cyclopropylmethyl-[2-(7-methyl-1H-indol-3-yl)-ethyl]-amide]
- IC50 [1]: 18 nM
- IC50 [2]: 9 nM

Compound: Cc1cccc(-c2sc(N)nc2C(=O)N(CCc2c[nH]c3cccc(F)c23)CC2CC2)c1 [Example 231, 2-Amino-5-m-tolyl-thiazole-4-carboxylic acid cyclopropylmethyl-[2-(4-fluoro-1H-indol-3-yl)-ethyl]-amide]
- IC50 [1]: 27 nM
- IC50 [2]: 9 nM

Compound: Cc1cccc(-c2sc(N)nc2C(=O)N(CCc2c[nH]c3ccc(F)cc23)CC2CC2)c1 [Example 232, 2-Amino-5-m-tolyl-thiazole-4-carboxylic acid cyclopropylmethyl-[2-(5-fluoro-1H-indol-3-yl)-ethyl]-amide]
- IC50 [1]: 16 nM
- IC50 [2]: 7 nM

Compound: Cc1cccc(-c2sc(N)nc2C(=O)N(CCc2c[nH]c3cc(F)ccc23)CC2CC2)c1 [Example 233, 2-Amino-5-m-tolyl-thiazole-4-carboxylic acid cyclopropylmethyl-[2-(6-fluoro-1H-indol-3-yl)-ethyl]-amide]
- IC50 [1, 3]: 22 nM
- IC50 [2, 3]: 37 nM

Compound: Cc1cccc(-c2sc(N)nc2C(=O)N(CCc2c[nH]c3c(F)cccc23)CC2CC2)c1 [Example 234, 2-Amino-5-m-tolyl-thiazole-4-carboxylic acid cyclopropylmethyl-[2-(7-fluoro-1H-indol-3-yl)-ethyl]-amide]
- IC50 [1]: 16 nM
- IC50 [2]: 5 nM

Compound: COc1ccc(CCN(CC2CC2)C(=O)c2nc(C)sc2-c2ccc(C)c(C)c2)cn1 [Example 254, 5-(3,4-Dimethyl-phenyl)-2-methyl-thiazole-4-carboxylic acid cyclopropylmethyl-[2-(6-methoxy-pyridin-3-yl)-ethyl]-amide]
- IC50 [1]: 232 nM
- IC50 [2]: 1770 nM

Compound: CN(C)c1cccc(-c2ocnc2C(=O)N(CCc2c[nH]c3ccc(F)cc23)CC2CC2)c1 [Example 261, 5-(3-Dimethylamino-phenyl)-oxazole-4-carboxylic acid cyclopropylmethyl-[2-(5-fluoro-1H-indol-3-yl)-ethyl]-amide]
- IC50 [1, 3]: 185 nM
- IC50 [2, 3]: 576 nM

Compound: Cc1nc(-c2ccc(Cl)cc2)c(C(=O)N(CCc2c[nH]c3ccc(F)cc23)CC2CC2)s1 [Example 262, 4-(4-Chloro-phenyl)-2-methyl-thiazole-5-carboxylic acid cyclopropylmethyl-[2-(5-fluoro-1H-indol-3-yl)-ethyl]-amide]
- IC50 [1, 3]: 470 nM
- IC50 [2, 3]: 9210 nM

Compound: Cc1nc(C(=O)N(CCc2c[nH]c3ccc(F)cc23)CC2CC2)c(-c2ccc(C)c(F)c2F)s1 [Example 273, 5-(2,3-Difluoro-4-methyl-phenyl)-2-methyl-thiazole-4-carboxylic acid cyclopropylmethyl-[2-(5-fluoro-1H-indol-3-yl)-ethyl]-amide]
- IC50 [1, 3]: 64 nM
- IC50 [2, 3]: 407 nM

Compound: Cc1ccc(-c2scnc2C(=O)N(CCc2c[nH]c3ccc(F)cc23)CC2CC2)cc1C [Example 274, 5-(3,4-Dimethyl-phenyl)-thiazole-4-carboxylic acid cyclopropylmethyl-[2-(5-fluoro-1H-indol-3-yl)-ethyl]-amide]
- IC50 [1, 3]: 66 nM
- IC50 [2, 3]: 155 nM

Compound: COc1nc(C(=O)N(CCc2c[nH]c3ccc(F)cc23)CC2CC2)c(-c2cccc(C)c2)s1 [Example 275, 2-Methoxy-5-m-tolyl-thiazole-4-carboxylic acid cyclopropylmethyl-[2-(5-fluoro-1H-indol-3-yl)-ethyl]-amide]
- IC50 [1, 3]: 70 nM
- IC50 [2, 3]: 201 nM

Compound: Cc1ccc(-c2sc(C3CC3)nc2C(=O)N(CCc2c[nH]c3ccc(F)cc23)CC2CC2)cc1F [Example 276, 2-Cyclopropyl-5-(3-fluoro-4-methyl-phenyl)-thiazole-4-carboxylic acid cyclopropylmethyl-[2-(5-fluoro-1H-indol-3-yl)-ethyl]-amide]
- IC50 [1, 3]: 601 nM
- IC50 [2, 3]: 2260 nM

Compound: Cc1cccc(-c2sc(CN(C)C)nc2C(=O)N(CCc2c[nH]c3ccc(F)cc23)CC2CC2)c1 [Example 279, 2-Dimethylaminomethyl-5-m-tolyl-thiazole-4-carboxylic acid cyclopropylmethyl-[2-(5-fluoro-1H-indol-3-yl)-ethyl]-amide]
- IC50 [1, 3]: 283 nM
- IC50 [2, 3]: 5620 nM

Compound: CCCN(CCc1c[nH]c2ccc(F)cc12)C(=O)c1nccnc1-c1ccccc1 [Example 283, 3-Phenyl-pyrazine-2-carboxylic acid [2-(5-fluoro-1H-indol-3-yl)-ethyl]-propyl-amide]
- IC50 [1, 3]: 16 nM
- IC50 [2, 3]: 192 nM

Compound: COC(=O)CN(CCc1c[nH]c2ccc(F)cc12)C(=O)c1nccnc1-c1ccccc1 [Example 286, [[2-(5-Fluoro-1H-indol-3-yl)-ethyl]-(3-phenyl-pyrazine-2-carbonyl)-amino]-acetic acid methyl ester]
- IC50 [1, 3]: 322 nM
- IC50 [2, 3]: 2730 nM

Compound: CC(C)N(CCc1c[nH]c2ccc(F)cc12)C(=O)c1nccnc1-c1ccccc1 [Example 287, 3-Phenyl-pyrazine-2-carboxylic acid [2-(5-fluoro-1H-indol-3-yl)-ethyl]-isopropyl-amide]
- IC50 [1, 3]: 585 nM
- IC50 [2, 3]: 2440 nM

Compound: O=C(c1nccnc1-c1ccccc1)N(CCO)CCc1c[nH]c2ccc(F)cc12 [Example 289, 3-Phenyl-pyrazine-2-carboxylic acid [2-(5-fluoro-1H-indol-3-yl)-ethyl]-(2-hydroxy-ethyl)-amide]
- IC50 [1, 3]: 627 nM
- IC50 [2, 3]: > 4270 nM

Compound: CCCN(CCc1c[nH]c2ccc(F)cc12)C(=O)c1nccnc1-c1ccc(C)c(C)c1 [Example 292, 3-(3,4-Dimethyl-phenyl)-pyrazine-2-carboxylic acid [2-(5-fluoro-1H-indol-3-yl)-ethyl]-propyl-amide]
- IC50 [1, 3]: 10 nM
- IC50 [2, 3]: 163 nM

Compound: Cc1ccc(-c2nccnc2C(=O)N(CCc2c[nH]c3ccc(F)cc23)CC(N)=O)cc1C [Example 294, 3-(3,4-Dimethyl-phenyl)-pyrazine-2-carboxylic acid carbamoylmethyl-[2-(5-fluoro-1H-indol-3-yl)-ethyl]-amide]
- IC50 [1, 3]: 706 nM
- IC50 [2, 3]: 3820 nM
